Measured values reported in patent US7141560B2, “Alanine 2,6-dialkoxyphenyl ester derivatives as hypnotics” (Akzo Nobel N.V., priority 2001, dated 2006).

Tested on: mice
Test: Hypnotic activity: loss of righting reflex after intravenous injection in mice
Assay type: in vivo
Conditions: intravenous injection over 10 seconds, dose causing loss of righting reflex for minimum 30 seconds in 50% of treated mice; for ED50: Mus musculus, read-out: HD50 (hypnotic dose50)
Method: The hypnotic potency of the alanine 2,6-dialkoxyphenyl ester derivatives of the invention was determined upon their intravenous administration in mice. The dose required to cause a loss of righting reflex for a minimum period of 30 seconds in 50% of treated mice after intravenous injection over 10 seconds was determined. This dose is termed the HD50 (hypnotic dose50) and is expressed in μmol.kg^−1. These in vivo experiments were carried out as described in detail by Anderson et al., J. Med. Chem. 1997, 40, 1668–1681.

Compound | HD50 (hypnotic dose50) | ED50
COCCN(CCOC)C(COC)C(=O)Oc1c(OC)cc(C)cc1OC (stereo not shown) [Example 4a, 2-[N-Bis(2-methoxyethyl)amino]-3-methoxypropionic acid, 2,6-dimethoxy-4-methylphenyl ester] | 28 µmol/kg | –
COCCC(C(=O)Oc1c(OC)cc(C)cc1OC)N1CCCCCC1 (stereo not shown) [Example 10n, 2-[1-(Hexahydroazepinyl)]-4-methoxybutyric acid, 2,6-dimethoxy-4-methylphenyl ester] | 38 µmol/kg | –
COc1cccc(OC)c1OC(=O)C(CN1CCOCC1)N1CCCCC1 (stereo not shown) [Example 19g, 3-(4-Morpholinyl)-2-(1-piperidinyl)propanoic acid, 2,6-dimethoxyphenyl ester] | – | 15 µmol/kg
COc1cc(C)cc(OC)c1OC(=O)C(CCS(C)(=O)=O)N1CC=CCC1 (stereo not shown) [Example 43, Butanoic acid, 4-(methylsulphonyl)-2-(1-[1,2,3,6-tetrahydropyridinyl])-, 1-(2,6-dimethoxy-4-methylphenyl)ester] | 39 µmol/kg | –
CCOc1cccc(OCC)c1OC(=O)C(CN1CCOCC1)N1CCOCC1 (stereo not shown) [Example 20b, Propanoic acid, 2,3-di(4-morpholinyl), 2,6-diethoxyphenyl ester] | 24 µmol/kg | –
COCCC(C(=O)Oc1c(OC)cccc1OC)N1CCCCCC1 (stereo not shown) [Example 10e, 2-[1-(Hexahydroazepinyl)]-4-methoxybutyric acid, 2,6-dimethoxyphenyl ester] | 17 µmol/kg | –
CCOCCC(C(=O)Oc1c(OC)cc(C)cc1OC)N1CCOCC1 (stereo not shown) [Example 10t, 4-Ethoxy-2-[4-morpholinyl]butyric acid, 2,6-dimethoxy-4-methylphenyl ester] | – | 36 µmol/kg
CCOCCC(C(=O)Oc1c(OC)cccc1OC)N1CCCOCC1 (stereo not shown) [Example 10p, 4-Ethoxy-2-[4-(hexahydro-1-oxazepinyl)]butyric acid, 2,6-dimethoxyphenyl ester] | 23 µmol/kg | –
COc1cccc(OC)c1OC(=O)C(CN1CCOCC1)N1CCOC[C@H]1C(C)C (stereo partly shown) [Example 19h] | 21 µmol/kg | –
COCCN(CCOC)C(CC(=O)OC)C(=O)Oc1c(OC)cccc1OC (stereo not shown) [Example 24a, Butanedioic, 2-[N-bis(2-methoxyethyl)amino]-, 1-(2,6-dimethoxyphenyl)ester, 4-methyl ester] | 48 µmol/kg | –
COCCN(C)C(COC)C(=O)Oc1c(OC)cc(C)cc1OC (stereo not shown) [Example 3l, 3-Methoxy-2-[N-(2-Methoxyethyl)methylamino]propionic acid, 2,6-dimethoxy-4-methylphenyl ester] | – | 58 µmol/kg
CCOCCC(C(=O)Oc1c(OC)cccc1OC)N1CCCCCC1 (stereo not shown) [Example 10q, 4-Ethoxy-2-[1-hexahydroazepinyl]butyric acid, 2,6-dimethoxyphenyl ester] | – | 25 µmol/kg
COCCCN(CCCOC)C(COC)C(=O)Oc1c(OC)cccc1OC (stereo not shown) [Example 3f, 2-[N-Bis(3-methoxypropyl)amino]-3-methoxypropionic acid, 2,6-dimethoxyphenyl ester] | 46 µmol/kg | –
COC(=O)CCC(C(=O)Oc1c(OC)cccc1OC)N1CCCCCC1.Cl (stereo not shown) [Example 47b, Pentanedioic acid, 2-(1-hexahydroazepinyl)-, 1-(2,6-dimethoxyphenyl)ester, 5-methyl ester hydrochloride (1:1) salt] | 36 µmol/kg | –
COc1cccc(OC)c1OC(=O)C(CN1CCOCC1)N1CCO[C@H](C)C1 (stereo partly drawn) [Example 19d, 2-[(R)-4-(2-Methylmorpholinyl)]-3-(4-morpholinyl)propanoic acid, 2,6-dimethoxyphenyl ester] | 27 µmol/kg | –
COc1cccc(OC)c1OC(=O)C(CN1CCSCC1)N1CCOCC1 (stereo not shown) [Example 19i, 2-(4-Morpholinyl)-3-(N-thiomorpholinyl)propanoic acid, 2,6-dimethoxyphenyl ester] | – | 19 µmol/kg
COCCN(CCOC)C(CC(=O)OC)C(=O)Oc1c(OC)cc(C)cc1OC (stereo not shown) [Example 24b, Butanedioic, 2-[N-bis(2-methoxyethyl)amino]-, 1-(2,6-dimethoxy-4-methylphenyl)ester, 4-methyl ester] | 48 µmol/kg | –
2-[N-(Bis(2-methoxyethyl)amino)]-4-ethoxybutyric acid, 2,6-dimethoxy-4-methylphenyl ester [Example 10v] | 41 µmol/kg | –
CC[C@@H]1CN(C(CN2CCOCC2)C(=O)Oc2c(OC)cccc2OC)CCO1 (stereo partly drawn) [Example 19e, 2-[(R)-4-(2-Ethylmorpholinyl)]-3-(4-morpholinyl)propanoic acid, 2,6-dimethoxyphenyl ester] | 27 µmol/kg | –
COCCN(CCOC)C(COC)C(=O)Oc1c(OC)cccc1OC (stereo not shown) [Example 3b, 2-[N-Bis(2-methoxyethyl)amino]-3-methoxypropionic acid, 2,6-dimethoxyphenyl ester] | 41 µmol/kg | –

Compound | HD50 (hypnotic dose50) | ED50
COc1cccc(OC)c1OC(=O)C(CN1CCOC(C)(C)C1)N1CCOC(C)(C)C1 (stereo not shown) [Example 18b, 2,3-Di-[4-(2,2-dimethylmorpholinyl)]propanoic acid, 2,6-dimethoxyphenyl ester] | 31 µmol/kg | –
COCCN(CCOC)C(COC)C(=O)Oc1c(OC)cc(C)cc1OC (stereo not shown) [Example 51d, (ξ)-2-[N-Bis(2-methoxyethyl)amino]-3-methoxypropionic acid, 2,6-dimethoxy-4-methylphenyl ester] | 36 µmol/kg | –
COCC(C(=O)Oc1c(OC)cccc1OC)N1CCSCC1 (stereo not shown) [Example 3c, 3-Methoxy-2-[N-thiomorpholinyl]propionic acid, 2 ,6-dimethoxyphenyl ester] | 21 µmol/kg | –
COC[C@H](C(=O)Oc1c(OC)cccc1OC)N1CCCOCC1 [Example 52a, 2R-[4-(Hexahydro-1-oxazepinyl)]-3-methoxypropionic acid, 2,6-dimethoxyphenyl ester] | – | 16 µmol/kg
CCOCCC(C(=O)Oc1c(OC)cccc1OC)N1CCOCC1 (stereo not shown) [Example 10o, 4-Ethoxy-2-[4-morpholinyl]butyric acid, 2,6-dimethoxyphenyl ester] | – | 36 µmol/kg
COc1cccc(OC)c1OC(=O)C(CN1CCSCC1)N1CCSCC1 (stereo not shown) [Example 18a, 2,3-Di-(N-thiomorpholinyl)propanoic acid, 2,6-dimethoxyphenyl ester] | – | 15 µmol/kg
COC(=O)CCC(C(=O)Oc1c(OC)cccc1OC)N1CCCCC1.Cl (stereo not shown) [Example 47a, Pentanedioic acid, 2-(1-piperidinyl)-, 1-(2,6-dimethoxyphenyl)ester, 5-methyl ester hydrochloride (1:1) salt] | 50 µmol/kg | –
COC(=O)CC(C(=O)Oc1c(OC)cccc1OC)N1CCCCC1 (stereo not shown) [Example 28a, Butanedioic, 2-(1-piperidinyl)-, 1-(2,6-dimethoxyphenyl)ester, 4-methyl ester] | 26 µmol/kg | –
COC(=O)CCC(C(=O)Oc1c(OC)cc(C)cc1OC)N1CCCC1.Cl (stereo not shown) [Example 49a, Pentanedioic acid, 2-(1-pyrrolidinyl)-, 1-(2,6-dimethoxy4-methylphenyl)-ester, 5-methyl ester hydrochloride (1:1) salt] | 50 µmol/kg | –
CCOCCC(C(=O)Oc1c(OC)cc(C)cc1OC)N1CCCOCC1 (stereo not shown) [Example 10w, 4-Ethoxy-2-[4-(hexahydro-1-oxazepinyl)]butyric acid, 2,6-dimethoxy-4-methylphenyl ester] | 26 µmol/kg | –
COC[C@@H](C(=O)Oc1c(OC)cccc1OC)N1CCCOCC1 [Example 52b, 2S-[4-(Hexahyro-1-oxazepinyl)]-3-methoxypropionic acid ,2,6-dimethoxyphenyl ester] | 40 µmol/kg | –
CCOCC(C(=O)Oc1c(OC)cccc1OC)N1CCCOCC1 (stereo not shown) [Example 3r, 3-Ethoxy-2-[4-(Hexahydro-1-oxazepinyl)]propionic acid, 2,6-dimethoxyphenyl ester] | 20 µmol/kg | –
COc1cccc(OC)c1OC(=O)C(CCSC)N1CCCCCC1 (stereo not shown) [Example 40c, Butanoic acid, 2-(1-hexahydroazepinyl)-4-(methylthio), 1-(2,6-dimethoxyphenyl)ester] | 18 µmol/kg | –
COCCC(C(=O)Oc1c(OC)cc(C)cc1OC)N1CCCOCC1 (stereo not shown) [Example 10j, 2-[4-(Hexahydro-1-oxazepinyl)]-4-methoxybutyric acid, 2,6-dimethoxy-4-methylphenyl ester] | 25 µmol/kg | –
COC(=O)CC(C(=O)Oc1c(OC)cccc1OC)N1CCCCCC1 (stereo not shown) [Example 30a, Butanedioic, 2-(1-hexahydroazepinyl)-, 1-(2,6-dimethoxyphenyl)ester, 4-methyl ester] | 23 µmol/kg | –
COCCC(C(=O)Oc1c(OC)cc(C)cc1OC)N1CCC(OC)CC1 (stereo not shown) [Example 10k, 4-Methoxy-2-[1-(4-methoxypiperidinyl)]butyric acid, 2,6-dimethoxy4-methylphenyl ester] | 34 µmol/kg | –
COC(=O)CC(C(=O)Oc1c(OC)cc(C)cc1OC)N1CCCCC1 (stereo not shown) [Example 28b, Butanedioic, 2-(1-piperidinyl)-, 1-(2,6-dimethoxy-4-methylphenyl)ester, 4-methyl ester] | 48 µmol/kg | –
COCCCN(CCCOC)C(COC)C(=O)Oc1c(OC)cc(C)cc1OC (stereo not shown) [Example 3p, 2-[N-Bis(3-methoxypropyl)amino]-3-methoxypropionic acid, 2,6-dimethoxy-4-methylphenyl ester] | 46 µmol/kg | –
CCOCCN(CCOCC)C(CCC(=O)OC)C(=O)Oc1c(OC)cc(C)cc1OC.Cl (stereo not shown) [Example 50] | 40 µmol/kg | –
COCCC(C(=O)Oc1c(OC)cccc1OC)N1CCCCC1 (stereo not shown) [Example 10f, 4-Methoxy-2-[1-piperidinyl]butyric acid, 2,6-dimethoxyphenyl ester] | – | 22 µmol/kg
